PubChem BioAssay AID1918994 (Molecular Pharmacology Branch, DTP, NCI, 2023)

Tested on: 292921-168-R-J2-PDC complex spheroid growth
Assay: Anticancer human tumor 292921-168-R-J2-PDC patient-derived pancreatic carcinoma cell line growth inhibition [AhR]
Conditions: for IC50: curve of first compound; for viability, T/C: stronger effect = lower value
Summary of the method: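 Complex tumor spheroids co-cultured with HUVEC and human MSC stroma; AhR antagonists tested in combination with standard-of-care and investigational agents. Top concentration at or near clinical Cmax (else 10 microM), half-log dilutions; growth expressed as percent test/control.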

[1] = second compound 0.1 µM, first compound 0.0316 µM
[2] = second compound 0.1 µM, first compound 0.1 µM
[3] = second compound 0.1 µM, first compound 0.316 µM
[4] = second compound 0.1 µM, first compound 1 µM
[5] = second compound 0.1 µM, first compound 3.16 µM
[6] = second compound 0.1 µM, first compound 10 µM
[7] = second compound 0.316 µM, first compound 0.0316 µM
[8] = second compound 0.316 µM, first compound 0.1 µM
[9] = second compound 0.316 µM, first compound 0.316 µM
[10] = second compound 0.316 µM, first compound 1 µM
[11] = second compound 0.316 µM, first compound 3.16 µM
[12] = second compound 0.316 µM, first compound 10 µM
[13] = second compound 1 µM, first compound 0.0316 µM
[14] = second compound 1 µM, first compound 0.1 µM
[15] = second compound 1 µM, first compound 0.316 µM
[16] = second compound 1 µM, first compound 1 µM
[17] = second compound 1 µM, first compound 3.16 µM
[18] = second compound 1 µM, first compound 10 µM
[19] = second compound 3.16 µM, first compound 0.0316 µM
[20] = second compound 3.16 µM, first compound 0.1 µM
[21] = second compound 3.16 µM, first compound 0.316 µM
[22] = second compound 3.16 µM, first compound 1 µM
[23] = second compound 3.16 µM, first compound 3.16 µM
[24] = second compound 3.16 µM, first compound 10 µM
[25] = second compound 10 µM, first compound 0.0316 µM
[26] = second compound 10 µM, first compound 0.1 µM
[27] = second compound 10 µM, first compound 0.316 µM
[28] = second compound 10 µM, first compound 1 µM
[29] = second compound 10 µM, first compound 3.16 µM
[30] = second compound 10 µM, first compound 10 µM
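Note: spheroids exposed to compounds for seven days after three days of growth.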

SMILES | IC50 (second compound 0.1 µM) [nM] | IC50 (second compound 0.316 µM) [nM] | IC50 (second compound 1 µM) [nM] | IC50 (second compound 3.16 µM) [nM] | IC50 (second compound 10 µM) [nM] | viability, T/C [1] [%] | viability, T/C [2] [%] | viability, T/C [3] [%] | viability, T/C [4] [%] | viability, T/C [5] [%] | viability, T/C [6] [%] | viability, T/C [7] [%] | viability, T/C [8] [%] | viability, T/C [9] [%] | viability, T/C [10] [%] | viability, T/C [11] [%] | viability, T/C [12] [%] | viability, T/C [13] [%] | viability, T/C [14] [%] | viability, T/C [15] [%] | also measured
CC1COCCN1c1cc(C2(S(C)(=N)=O)CC2)nc(-c2ccnc3[nH]ccc23)n1 (stereo not given) + CC(CO)NC(=O)c1cc(-c2ccc(Cl)cc2)nn(-c2cnn(C)c2)c1=O | 3200 | 3000 | 3620 | 2940 | 1740 | 106 | 114 | 105 | 82.9 | 51 | 34.4 | 107 | 104 | 105 | 87.3 | 48.4 | 31.9 | 114 | 107 | 99.5 | viability, T/C [16]: 89.4%; viability, T/C [17]: 50.8%; viability, T/C [18]: 31.2%; viability, T/C [19]: 102%; viability, T/C [20]: 88.1%; viability, T/C [21]: 94.9%; viability, T/C [22]: 84.3%; viability, T/C [23]: 47.7%; viability, T/C [24]: 28.4%; viability, T/C [25]: 78.7%; viability, T/C [26]: 74.2%; viability, T/C [27]: 80.8%; viability, T/C [28]: 63.9%; viability, T/C [29]: 34.7%; viability, T/C [30]: 25.4%
COc1cc(C2c3cc4c(cc3C(OC3OC5COC(C)OC5C(O)C3O)C3COC(=O)C23)OCO4)cc(OC)c1O (stereo not given) + Cc1cncc(-c2nc(NCCc3c[nH]c4ccccc34)c3ncn(C(C)C)c3n2)c1 | 565 | 581 | 289 | 261 | < 31.6 | 92.6 | 92.2 | 64 | 34.1 | 24.2 | 13.3 | 78.7 | 73.6 | 64.8 | 35.9 | 24.7 | 12.9 | 77.1 | 67 | 48.9 | viability, T/C [16]: 28.7%; viability, T/C [17]: 23.4%; viability, T/C [18]: 13.1%; viability, T/C [19]: 62.3%; viability, T/C [20]: 62.5%; viability, T/C [21]: 47.5%; viability, T/C [22]: 25.9%; viability, T/C [23]: 21.2%; viability, T/C [24]: 13.5%; viability, T/C [25]: 46.5%; viability, T/C [26]: 43.6%; viability, T/C [27]: 37.2%; viability, T/C [28]: 26.2%; viability, T/C [29]: 22.3%; viability, T/C [30]: 20.2%

These reach a lower IC50 (second compound 0.1 µM). Values come first.

IC50 (second compound 0.1 µM) [nM] | IC50 (second compound 0.316 µM) [nM] | IC50 (second compound 1 µM) [nM] | IC50 (second compound 3.16 µM) [nM] | IC50 (second compound 10 µM) [nM] | SMILES | viability, T/C [1] [%] | viability, T/C [2] [%] | viability, T/C [3] [%] | viability, T/C [4] [%] | viability, T/C [5] [%] | viability, T/C [6] [%] | viability, T/C [7] [%] | viability, T/C [8] [%] | viability, T/C [9] [%] | viability, T/C [10] [%] | viability, T/C [11] [%] | viability, T/C [12] [%] | viability, T/C [13] [%] | viability, T/C [14] [%] | viability, T/C [15] [%] | also measured
213 | 221 | 223 | 208 | 169 | NS(=O)(=O)OCC1CC(n2ccc3c(NC4CCc5ccccc54)ncnc32)CC1O (stereo not given) + CC(CO)NC(=O)c1cc(-c2ccc(Cl)cc2)nn(-c2cnn(C)c2)c1=O | 117 | 98.1 | 24.8 | 5.49 | 4.31 | 5.11 | 125 | 98 | 28.5 | 6.03 | 3.81 | 4.31 | 116 | 101 | 27.8 | viability, T/C [16]: 5.81%; viability, T/C [17]: 4.08%; viability, T/C [18]: 4.94%; viability, T/C [19]: 105%; viability, T/C [20]: 93.5%; viability, T/C [21]: 25.2%; viability, T/C [22]: 5.74%; viability, T/C [23]: 4%; viability, T/C [24]: 5.65%; viability, T/C [25]: 89.6%; viability, T/C [26]: 73.1%; viability, T/C [27]: 22.2%; viability, T/C [28]: 6.76%; viability, T/C [29]: 3.96%; viability, T/C [30]: 5.6%
190 | 148 | 195 | 116 | < 31.6 | Nc1ccccc1NC(=O)c1ccc(CNC(=O)OCc2cccnc2)cc1 + CC(CO)NC(=O)c1cc(-c2ccc(Cl)cc2)nn(-c2cnn(C)c2)c1=O | 67.5 | 58.8 | 43 | 31 | 25.5 | 9.72 | 69 | 51.2 | 44.3 | 28.1 | 23.7 | 10.4 | 66.6 | 60.7 | 43.4 | viability, T/C [16]: 25.4%; viability, T/C [17]: 23.7%; viability, T/C [18]: 9.21%; viability, T/C [19]: 60.8%; viability, T/C [20]: 51.1%; viability, T/C [21]: 43.3%; viability, T/C [22]: 23.1%; viability, T/C [23]: 22.7%; viability, T/C [24]: 8.28%; viability, T/C [25]: 45.9%; viability, T/C [26]: 40.5%; viability, T/C [27]: 32.9%; viability, T/C [28]: 19.4%; viability, T/C [29]: 18.1%; viability, T/C [30]: 5.12%
227 | 224 | 231 | 229 | 221 | NS(=O)(=O)OCC1CC(n2ccc3c(NC4CCc5ccccc54)ncnc32)CC1O (stereo not given) + Cc1cncc(-c2nc(NCCc3c[nH]c4ccccc34)c3ncn(C(C)C)c3n2)c1 | 136 | 111 | 25.1 | 6.77 | 5.38 | 5.4 | 133 | 108 | 25.1 | 7.33 | 5.81 | 5.63 | 117 | 104 | 30 | viability, T/C [16]: 6.44%; viability, T/C [17]: 6.99%; viability, T/C [18]: 7.06%; viability, T/C [19]: 111%; viability, T/C [20]: 93.7%; viability, T/C [21]: 33.1%; viability, T/C [22]: 8.82%; viability, T/C [23]: 7.53%; viability, T/C [24]: 6.05%; viability, T/C [25]: 69.9%; viability, T/C [26]: 76.7%; viability, T/C [27]: 39.5%; viability, T/C [28]: 13%; viability, T/C [29]: 9.88%; viability, T/C [30]: 7.28%
